Legend:
[1] = tested on: sebum secretion; details: in vivo; cited from earlier work
[2] = tested on: sebaceous glands of Syrian hamster ears; assay: Syrian hamster ear model of sebum secretion, HPLC of cholesterol ester and wax ester; type: in vivo; details: topical 1 w/v %, 4 weeks; for % Reduction in CE, change vs. relevant vehicle control: cholesterol ester; for % Reduction in CE, change vs. relevant vehicle control / % Reduction in WE, change vs. relevant vehicle control: twice daily, five days a week, right ear, negative = increase; for Sum CE + WE, change vs. relevant vehicle control: summation of % reduction in CE and in WE; for effect on CE and WE (sebum) secretion, in words: compared to the control; for % Reduction in WE, change vs. relevant vehicle control: wax ester
Method: Luderschmidt et al describes an animal model for testing whether compounds are capable of modulating sebum secretion. Arch. Derm. Res. 258, 185-191 (1977). This model uses Syrian hamsters, whose ears contain sebaceous glands. Compounds can be administered to these animals to determine if a test agent is capable of modulating sebum production
Testing for sebum inhibition was carried out in the following manner. Male Syrian hamsters aged 9 to 10 weeks were introduced into the laboratory environment and acclimated for 2 weeks prior to use in the study. Each group consisted of 5 animals and were run in parallel with vehicle and positive controls. Prior to administration, 10 mg of each compound was dissolved in 1 mL of Universal solvent (ethanol/propylene glycol (70/30% v/v) to achieve a final concentration of 1 w/v %.
Animals were dosed topically twice daily, five days a week, for 4 weeks. Each dose consisted of 25 micro liters of vehicle control or drug. The dose was applied to the ventral surfaces of both the right and left ears. All animals were sacrificed approximately 18-24 hours after the final dose. The right ears were collected from each animal and used for sebum analysis.
The ears were prepped for HPLC analysis in the following manner. One 8 mm distal biopsy punch was taken, just above the anatomical “V” mark in the ear to normalize the sample area. The punch was pulled apart. The ventral biopsy surface (the area where the topical dose was directly applied to the sebaceous glands) was retained for testing and the dorsal surface of the biopsy punch was discarded.
Tissue samples were blown with N2 gas and stored at −80° C. under nitrogen until HPLC analysis. In addition to ear samples, an aliquot of each drug and vehicle (at least 250 ul) was also stored at −80° C. for inclusion in the HPLC analysis.
HPLC analysis was carried out on an extract of the tissue sample. Tissue samples were contacted with 3 ml of solvent (a 4:1 admixture of 2,2,4-trimethylpentane and isopropyl alcohol). The mixture was shaken for 15 minutes and stored overnight at room temperature, protected from light. The next morning 1 milliliter of water was added to the sample and shaken for 15 minutes. The sample was then centrifuged at approximately 1500 rpm for 15 minutes. Two ml of the organic phase (top layer) was transferred to a glass vial, dried at 37° C., under nitrogen, for approximately 1 hour, and then lyophilized for approximately 48 hours. The samples were then removed from the lyophilizer and each vial was reconstituted with 600 μl of solvent A (trimethylpentane/tetrahydrofuran (99:1). The samples were then recapped and vortexed for 5 minutes.
200 μl of each sample was then transferred to a pre-labeled 200 μl HPLC vial with 200 μL glass inserts. The HPLC vials were placed in the autosampler tray for the Agilent 1100 series HPLC unit. The Agilent 1100 HPLC system consisted of a thermostated autosampler, a quarternary pump, a column heater, and an A/D interface module. All components were controlled by Agilent ChemStation software. A Waters Spherisorb S3W 4.6×100 mm analytical column was maintained at 30° C. by the Agilent column heater unit. The HPLC autosampler was programmed to maintain the sample temperature at 20° C. throughout the run.
10 uL of each sample was injected in triplicate into the column. Two solvents were used for the solvent gradient. Solvent A was an admixture of trimethylpentane and tetrahydrofuran (99:1). Solvent B was ethylacetate. The gradient utilized is described in the table below: […]
The Sedex 75 Evaporative Light Scattering Detector (ELSD) was operated at 45° C. with a gain of 5, and N2 pressure maintained at 3.1 bar. Analog signal obtained by the instrument was sent to the Agilent A/D interface module where it was converted to a digital output. The conversion was based on a 10000 mAU/volt set point and the data rate was set at 10 Hz (0.03 min). […]

| SMILES | reduction of sebum secretion [1] | % Reduction in CE, change vs. relevant vehicle control [2] [%] | Sum CE + WE, change vs. relevant vehicle control [2] [%] | effect on CE and WE (sebum) secretion, in words [2] | % Reduction in WE, change vs. relevant vehicle control [2] [%] |
| --- | --- | --- | --- | --- | --- |
| CC1=C(/C=C/C(C)=C/C=C/C(C)=C\C(=O)O)C(C)(C)CCC1 [Accutane, isotretinoin] | up to 90% |  |  |  |  |
| CSc1ccc(CN(C(=O)CC(=O)Nc2c(C(C)C)cccc2C(C)C)C(C)C)cc1 [Compound 2] |  | 65 | 96 | comparable results | 31 |
| COc1ccc(CN(C(=O)CC(=O)Nc2c(C(C)C)cccc2C(C)C)c2ccccn2)cc1 [Compound 3] |  | 51 | 84 | comparable results | 33 |
| CC(C)c1cccc(C(C)C)c1NC(=O)CC(=O)N(CCN(C)C)Cc1ccccc1 [Compound 4] |  | −1 | −19 |  | −18 |
| COc1ccc(CN(C(=O)CC(=O)Nc2c(C(C)C)cccc2C(C)C)c2ncccn2)cc1 [Compound 5] |  | 32 | 28 |  | −4 |
| CC(C)c1cccc(C(C)C)c1NC(=O)CC(=O)N(CCC#N)Cc1ccccc1 [Compound 6] |  | 23 | 22 |  | −1 |
| CCOC(=O)CN(C(=O)CC(=O)Nc1c(C(C)C)cccc1C(C)C)c1ccccc1 [Compound 7] |  | −67 | −151 |  | −84 |
| CC(C)c1cccc(C(C)C)c1NC(=O)CC(=O)N(c1ccccc1)C(C)C [Compound 8] |  | −27 | −97 |  | −70 |
| CC(C)c1cccc(C(C)C)c1NC(=O)CC(=O)CC(c1ccccc1)c1ccccc1 [Compound 9] |  | 7 | 9 |  | 2 |
| CCCCCCCCCCCCn1nnc(C(C(=O)Nc2c(C(C)C)cccc2C(C)C)c2ccccc2)n1 (stereo not drawn) [Compound 10] |  | −105 | −252 |  | −147 |
| CCCCCCCCCCCCn1nnc(C(C(=O)Nc2c(OC)cc(OC)cc2OC)c2ccccc2)n1 (stereo not drawn) [Compound 11] |  | −5 | −11 |  | −6 |
| CCCCCCCCCCCCOP(=O)(CC(=O)Nc1c(C(C)C)cccc1C(C)C)c1ccccc1 (stereo not drawn) [Compound 12] |  | 48 | 92 |  | 44 |
| CC(C)c1cccc(C(C)C)c1NC(=O)NCC1(c2ccccc2)CCOCC1 [Compound 13] |  | −7 | −14 |  | −7 |
| CCCCCCCCCCCCCC(=O)CC(=O)Nc1c(C(C)C)cccc1C(C)C [Compound 14] |  | −8 | −23 |  | −15 |
| CCCCCCCC1CCC(C(=O)Nc2c(C(C)C)cccc2C(C)C)C(=O)O1 (stereo not drawn) [Compound 15] |  | 24 | 38 |  | 14 |
| CC(C)c1cccc(C(C)C)c1NC(=O)NCC1(c2ccc(CO)cc2)CCCC1 [Compound 16] |  | −1 | −1 |  | 0 |

| SMILES | reduction of sebum secretion [1] | % Reduction in CE, change vs. relevant vehicle control [2] [%] | Sum CE + WE, change vs. relevant vehicle control [2] [%] | effect on CE and WE (sebum) secretion, in words [2] | % Reduction in WE, change vs. relevant vehicle control [2] [%] |
| --- | --- | --- | --- | --- | --- |
| CC(C)c1cccc(C(C)C)c1NC(=O)NCC1(c2ccccn2)CCCC1 [Compound 17] |  | −56 | −120 |  | −64 |
| CCCCCCCCCCCCn1nnc(CC(=O)Nc2c(C)nn(C)c2C)n1 [Compound 18] |  | −23 | −72 |  | −49 |
| CCCCCCCCCCCCn1nnc(CNC(=O)Nc2c(C(C)C)cccc2C(C)C)n1 [Compound 19] |  | −6 | −5 |  | 1 |
| CC(C)c1cccc(C(C)C)c1NC(=O)NCC1(c2ccco2)CCC1 [Compound 20] |  | 4 | 3 |  | −1 |
| COc1ccccc1CN[C@@H](CNC(=O)Nc1c(C(C)C)cccc1C(C)C)c1ccccc1 [Compound 21] |  | 4 | 7 |  | 3 |
| CCCCCCCN(CCCCCSc1nc(-c2ccccc2)c(-c2ccccc2)[nH]1)C(=O)Nc1ccc(F)cc1F [Compound 22] |  | 20 | 24 |  | 4 |
| CC(C)c1cccc(C(C)C)c1NC(=O)NCC1(c2cccc(CN(CCO)CCO)c2)CCCC1 [Compound 23] |  | 4 | −80 |  | −84 |
| CC(C)c1cccc(C(C)C)c1NC(=O)NCC1(c2cccc(CN3CCOCC3)c2)CCCC1 [Compound 24] |  | 20 | 21 |  | 1 |
| COc1cc(OC)cc(C(NCC(=O)Nc2c(C(C)C)cccc2C(C)C)c2ccccc2)c1 (stereo not drawn) [Compound 25] |  | 10 | 7 |  | −3 |
| CC(C)c1cccc(C(C)C)c1NC(=O)Nc1nnn(CCCCCCCCCCCO)n1 [Compound 26] |  | 28 | 37 |  | 9 |
| CC(C)c1cccc(C(C)C)c1NC(=O)NCC(C)c1ccccc1 (stereo not drawn) [Compound 27] |  | −17 | −40 |  | −23 |
| CC(C)c1cccc(C(C)C)c1NC(=O)NCC1(c2ccccc2)CC1 [Compound 28] |  | 0 | −8 |  | −8 |
| CC(=O)OC(C(=O)N(CC(=O)Nc1c(C(C)C)cccc1C(C)C)Cc1ccccc1)c1ccccc1 (stereo not drawn) [Compound 29] |  | 19 | 30 |  | 11 |
| COc1cccc2c1CCC(NC(=O)Nc1c(C(C)C)cccc1C(C)C)C2 (stereo not drawn) [Compound 30] |  | −10 | −44 |  | −34 |
| CC(C)c1cccc(C(C)C)c1NC(=O)NCCc1c[nH]c2ccccc12 [Compound 31] |  | 9 | 18 |  | 9 |

Source: patent publication US8409595B2, “Method for decreasing sebum production” (Medicis Pharmaceutical Corporation, priority 2003, dated 2013)
